Data as given in US9951066B2, “Compositions, uses and methods for making them” (Pimera, Inc., priority 2014, dated 2018).
Where a name gives a salt, the structure may show the parent alone. Read-outs that look alike come from different tables or passages of the source.

Experiments:
Type in all cases: cell-based
NCI-H1299 = experiment: Alamar Blue cell viability assay, NCI-H1299; settings: Homo sapiens, 96 h incubation, read-out: cell proliferation inhibition NCI-H1299
Method: (§1) Inhibitory activity on cell proliferation of representative compounds of the invention was determined using an Alamar Blue cell viability assay as described hereafter.
(§2) 3000 cancer cells in 100 uL of cell culture media were plated in each well of a 96-well clear bottom, black wall cell culture-pretreated plate.
(§3) The next day compounds are serially diluted (3-fold in cell culture media) across a 96-well polypropylene mother plate from row A to row F, to yield 6 concentrations (10 uM, 3.3 uM, 1.1 uM, 370 nM, 124 nM and 41 nM) for each test compound. Rows G and H contain only DMSO.
(§4) Once titrations are made, the media in plates with cells were disposed and 100 μL of drug dilutions are transferred to plates with cells. After a ninety six-hour incubation at 37° C., 10 uL of resazurin solution from Alamar Blue Cell Viability kit (Invitrogen, Carlsbad, Calif.) was added to the media and cells were incubated at 37° C. for three more hours. At the end of this incubation the production of resofurin was measured using Spectrmax M2 microplate reader (Molecular Devices, Sunnyvale, Calif.)

PC-3 = experiment: Alamar Blue cell viability assay, PC-3; settings: Homo sapiens, 96 h incubation, read-out: cell proliferation inhibition PC-3
Method: as §1, §2, §3, §4

A549 = experiment: Alamar Blue cell viability assay, A549; settings: Homo sapiens, 96 h incubation, read-out: cell proliferation inhibition A549
Method: as §1, §2, §3, §4

DLD-1 = experiment: Alamar Blue cell viability assay, DLD-1; settings: Homo sapiens, 96 h incubation, read-out: cell proliferation inhibition DLD-1
Method: as §1, §2, §3, §4

ML-2 = experiment: Alamar Blue cell viability assay, ML-2; settings: Homo sapiens, 96 h incubation, read-out: cell proliferation inhibition ML-2
Method: as §1, §2, §3, §4

CT26 = experiment: Alamar Blue cell viability assay, CT26; settings: Mus musculus, 96 h incubation, read-out: cell proliferation inhibition CT26
Method: as §1, §2, §3, §4

MCF7 = experiment: Alamar Blue cell viability assay, MCF7; settings: Homo sapiens, 96 h incubation, read-out: cell proliferation inhibition MCF7
Method: as §1, §2, §3, §4

NOMO-1 = experiment: Alamar Blue cell viability assay, NOMO-1; settings: Homo sapiens, 96 h incubation, read-out: cell proliferation inhibition NOMO-1
Method: as §1, §2, §3, §4

Hep G2 = experiment: Alamar Blue cell viability assay, Hep G2; settings: Homo sapiens, HepG2, 96 h incubation, read-out: cell proliferation inhibition Hep G2
Method: as §1, §2, §3, §4

MDA-MB-231 = experiment: Alamar Blue cell viability assay, MDA-MB-231; settings: Homo sapiens, 96 h incubation, read-out: cell proliferation inhibition MDA-MB-231
Method: as §1, §2, §3, §4

NB4-Av = experiment: Alamar Blue cell viability assay, NB4-Av; settings: 96 h incubation, read-out: cell proliferation inhibition NB4-Av
Method: as §1, §2, §3, §4

HCT-116 = experiment: Alamar Blue cell viability assay, HCT-116; settings: Homo sapiens, 96 h incubation, read-out: cell proliferation inhibition HCT-116
Method: as §1, §2, §3, §4

AGS = experiment: Alamar Blue cell viability assay, AGS; settings: Homo sapiens, 96 h incubation, read-out: cell proliferation inhibition AGS
Method: as §1, §2, §3, §4

4T1 = experiment: Alamar Blue cell viability assay, 4T1; settings: Mus musculus, 96 h incubation, read-out: cell proliferation inhibition 4T1
Method: as §1, §2, §3, §4

SKM-1 = experiment: Alamar Blue cell viability assay, SKM-1; settings: Homo sapiens, 96 h incubation, read-out: cell proliferation inhibition SKM-1
Method: as §1, §2, §3, §4

SKM_1_AV = experiment: Alamar Blue cell viability assay, SKM_1_AV; settings: 96 h incubation, read-out: cell proliferation inhibition SKM_1_AV
Method: as §1, §2, §3, §4

A375 cell line = experiment: Alamar Blue cell viability assay, A375; settings: Homo sapiens, A-375, cell proliferation inhibition, Alamar Blue, 96 h incubation
Method: as §1, §2, §3, §4

Hs.294T = experiment: Alamar Blue cell viability assay, Hs.294T; settings: Homo sapiens, 96 h incubation, read-out: cell proliferation inhibition Hs.294T
Method: as §1, §2, §3, §4

KG-1 = experiment: Alamar Blue cell viability assay, KG-1; settings: Homo sapiens, 96 h incubation, read-out: cell proliferation inhibition KG-1
Method: as §1, §2, §3, §4

HT-1080 = experiment: Alamar Blue cell viability assay, HT-1080; settings: Homo sapiens, 96 h incubation, read-out: cell proliferation inhibition HT-1080
Method: as §1, §2, §3, §4

ES.2 = experiment: Alamar Blue cell viability assay, ES.2; settings: Homo sapiens
Method: as §1, §2, §3, §4

WM-115 = experiment: Alamar Blue cell viability assay, WM-115; settings: Homo sapiens, 96 h incubation, read-out: cell proliferation inhibition WM-115
Method: as §1, §2, §3, §4

B16-F10 = experiment: Alamar Blue cell viability assay, B16-F10; settings: Mus musculus, 96 h incubation, read-out: cell proliferation inhibition B16-F10
Method: as §1, §2, §3, §4

LnCAP = experiment: Alamar Blue cell viability assay, LnCAP; settings: Homo sapiens, 96 h incubation, read-out: cell proliferation inhibition LnCAP
Method: as §1, §2, §3, §4

A2058 = experiment: Alamar Blue cell viability assay, A2058; settings: Homo sapiens, cell proliferation inhibition, 96 h incubation, read-out: Pharmaceutical activity IC50 A2058
Method: as §1, §2, §3, §4

SK-MEL 28 = experiment: Alamar Blue cell viability assay, SK-MEL 28; settings: Homo sapiens, cell proliferation inhibition, 96 h incubation, read-out: Pharmaceutical activity IC50 SK-MEL 28
Method: as §1, §2, §3, §4

A2780 = experiment: Alamar Blue cell viability assay, A2780; settings: Homo sapiens, cell proliferation inhibition, 96 h incubation, read-out: Pharmaceutical activity IC50 A2780
Method: as §1, §2, §3, §4

Malme-3M = experiment: Alamar Blue cell viability assay, Malme-3M; settings: Homo sapiens, cell proliferation inhibition, 96 h incubation, read-out: Pharmaceutical activity IC50 Malme-3M
Method: as §1, §2, §3, §4

kuramochi = experiment: Alamar Blue cell viability assay, kuramochi ovarian cell line; settings: 96 h incubation, read-out: IC50 in ovarian cell lines kuramochi
Method: as §1, §2, §3, §4

JHOC7 = experiment: Alamar Blue cell viability assay, JHOC7 ovarian cell line; settings: 96 h incubation, read-out: IC50 in ovarian cell lines JHOC7
Method: as §1, §2, §3, §4

2008 = experiment: Alamar Blue cell viability assay, 2008; settings: cell proliferation inhibition, 96 h incubation, read-out: Pharmaceutical activity IC50 2008
Method: as §1, §2, §3, §4

TOV112D = experiment: Alamar Blue cell viability assay, TOV112D ovarian cell line; settings: Homo sapiens, 96 h incubation, read-out: IC50 in ovarian cell lines TOV112D
Method: as §1, §2, §3, §4

EF-21 = experiment: Alamar Blue cell viability assay, EF-21 ovarian cell line; settings: 96 h incubation, read-out: IC50 in ovarian cell lines EF-21
Method: as §1, §2, §3, §4

U-87 MG = experiment: Alamar Blue cell viability assay, U-87 MG; settings: Homo sapiens, cell proliferation inhibition, 96 h incubation, read-out: Pharmaceutical activity IC50 U-87 MG
Method: as §1, §2, §3, §4

JHOC9 = experiment: Alamar Blue cell viability assay, JHOC9 ovarian cell line; settings: 96 h incubation, read-out: IC50 in ovarian cell lines JHOC9
Method: as §1, §2, §3, §4

JHOM1 = experiment: Alamar Blue cell viability assay, JHOM1 ovarian cell line; settings: 96 h incubation, read-out: IC50 in ovarian cell lines JHOM1
Method: as §1, §2, §3, §4

[1] = read-out: Pharmaceutical activity IC50 A375
[2] = Table 2, 96 h incubation, read-out: cell proliferation inhibition ES.2
[3] = Table 4, read-out: Pharmaceutical activity in A375 cell line IC50

| Structure (SMILES) | IC50 (NCI-H1299) | IC50 (PC-3) | IC50 (A549) | IC50 (DLD-1) | IC50 (ML-2) | IC50 (CT26) | IC50 (MCF7) | IC50 (NOMO-1) | IC50 (Hep G2) | IC50 (MDA-MB-231) | IC50 (NB4-Av) | IC50 (HCT-116) | IC50 (AGS) | IC50 (4T1) | IC50 (SKM-1) | IC50 (SKM_1_AV) | IC50 (A375 cell line; [1]) | IC50 (KG-1) | IC50 (HT-1080) | IC50 (B16-F10) | other results |
| --- | --- | --- | --- | --- | --- | --- | --- | --- | --- | --- | --- | --- | --- | --- | --- | --- | --- | --- | --- | --- | --- |
| CN1CCCN(c2ccc3cc(C(=O)O)c4nc5ccccc5n4c3n2)CC1 [Compound 1A, 2-(4-methyl-[1,4]diazepan-1-yl)-1,7,11b-triaza-benzo[c]fluorene-6-carboxylate sodium salt] | 1000 to 5000 nM | 1000 to 5000 nM | 5000 to 10000 nM | 1000 to 5000 nM | < 1000 nM | 5000 to 10000 nM | 1000 to 5000 nM | < 1000 nM | < 1000 nM | 1000 to 5000 nM | < 1000 nM | < 1000 nM | 1000 to 5000 nM | 5000 to 10000 nM | < 1000 nM | < 1000 nM | < 1000 nM | < 1000 nM | 1000 to 5000 nM | 5000 to 10000 nM | IC50 (Hs.294T): < 1000 nM; IC50 (ES.2; [2]): < 1000 nM; IC50 (WM-115): < 1000 nM; IC50 (LnCAP): 5000 to 10000 nM |
| Cc1cnc(CNC(=O)c2cc3ccc(N4CCCN(C)CC4)nc3n3c2nc2ccccc23)cn1 [Compound 2E, 2-(4-methyl-[1,4]diazepan-1-yl)-1,7,11b-triazabenzo[c]fluorene-6-carboxylic acid (5-methylpyrazin-2-ylmethyl)-amide] |  |  |  |  |  |  |  |  |  |  |  |  |  |  |  |  | < 1000 nM |  |  |  | IC50 (A2058): 5000 to 10000 nM |
| CNC(=O)c1cc2ccc(N3CCCN(C)CC3)nc2n2c1nc1ccccc12 [Compound 2G, 2-(4-methyl-[1,4]diazepan-1-yl)-1,7,11b-triazabenzo[c]fluorene-6-carboxylic acid methylamide] | 1000 to 5000 nM | < 1000 nM | 1000 to 5000 nM | < 1000 nM | < 1000 nM | 1000 to 5000 nM | 1000 to 5000 nM | < 1000 nM | < 1000 nM | < 1000 nM | < 1000 nM | < 1000 nM | < 1000 nM | 5000 to 10000 nM | < 1000 nM | < 1000 nM | < 1000 nM | < 1000 nM | 1000 to 5000 nM | 1000 to 5000 nM | IC50 (SK-MEL 28): < 1000 nM; IC50 (A2780): < 1000 nM; IC50 (Malme-3M): < 1000 nM; IC50 (kuramochi): < 1000 nM; IC50 (JHOC7): < 1000 nM; IC50 (A2058): < 1000 nM; IC50 2008: < 1000 nM; IC50 (TOV112D): < 1000 nM; IC50 (EF-21): < 1000 nM; IC50 (U-87 MG): < 1000 nM; IC50 (Hs.294T): < 1000 nM; IC50 (JHOC9): < 1000 nM; IC50 (ES.2; Table 1, cell proliferation inhibition, 96 h incubation, read-out: Pharmaceutical activity IC50 ES.2): < 1000 nM; IC50 (ES.2; [2]): < 1000 nM; IC50 (WM-115): 1000 to 5000 nM; IC50 (LnCAP): 1000 to 5000 nM; IC50 (JHOM1): < 1000 nM |
| C[C@@H]1CN(c2ccc3cc(C#N)c4nc5ccccc5n4c3n2)C[C@H](C)N1 [Compound 3A, 2-((3S,5R)-3,5-dimethylpiperazin-1-yl)-1,7,11b-triaza-benzo[c]fluorene-6-carbonitrile] | 5000 to 10000 nM | 1000 to 5000 nM | 5000 to 10000 nM | < 1000 nM | < 1000 nM | 5000 to 10000 nM | 5000 to 10000 nM | < 1000 nM | < 1000 nM | < 1000 nM | < 1000 nM | < 1000 nM | < 1000 nM | 5000 to 10000 nM | < 1000 nM | < 1000 nM | < 1000 nM | < 1000 nM | 5000 to 10000 nM | 1000 to 5000 nM | IC50 (LnCAP): 5000 to 10000 nM |
| CCN1CCN(c2ccc3cc(C#N)c4nc5ccccc5n4c3n2)CC1 [Compound 3B, 2-(4-ethylpiperazin-1-yl)-1,7,11b-triaza-benzo[c]fluorene-6-carbonitrile] |  |  |  |  |  |  |  |  | < 1000 nM |  |  |  |  |  | < 1000 nM |  | < 1000 nM |  |  |  |  |
| O=C(NCCN1CCOCC1)c1cc2cnccc2n2c1nc1ccccc12 [Compound 13F, 3,7,11b-Triaza-benzo[c]fluorene-6-carboxylic acid (2-morpholin-4-yl-ethyl)-amide] |  |  |  |  |  |  |  |  |  |  |  |  |  |  |  |  |  |  |  |  | IC50 (A375 cell line; [3]): 5000 to 10000 nM |
| O=C(NCCN1CCCC1)c1cc2cnccc2n2c1nc1ccccc12 [Compound 13G] |  |  |  |  |  |  |  |  |  |  |  |  |  |  |  |  |  |  |  |  | IC50 (A375 cell line; [3]): < 1000 nM |
